Reference: ChEMBL document CHEMBL1201862, “PubChem BioAssay data set” (2004)
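1) Cells in 96-well plates. 2) Compound, 48 h, 5 concentrations. 3) Linear interpolation between surrounding doses. 4) Unreached endpoint = highest concentration. The concentration for 50% growth inhibition is given as GI50.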 Active and inactive are the calls of the source. No stated cut-off is given here; in the data, active = GI50 up to about 1.1 µM and inactive = higher.

Legend:
Assay in all cases: DTP human tumour cell line panel, 48 h
T47D = system: T47D
LOX IMVI = system: LOX IMVI
M14 = system: M14
NCI-H226 = system: NCI-H226
MDA-MB-435 = system: MDA-MB-435
CCRF-CEM = system: CCRF-CEM
786-0 = system: 786-0
OVCAR-4 = system: OVCAR-4
SN12C = system: SN12C
TK-10 = system: TK-10
HOP-92 = system: HOP-92
U-251 = system: U-251
NCI-H23 = system: NCI-H23
DU-145 = system: DU-145
HL-60 = system: HL-60
NCI/ADR-RES = system: NCI/ADR-RES
ACHN = system: ACHN
UACC-62 = system: UACC-62
SF-539 = system: SF-539
HCC 2998 = system: HCC 2998

Measured: GI50

c1cncc(CNCc2cccnc2)c1
inactive: T47D > 100 µM | LOX IMVI > 100 µM | M14 > 100 µM | NCI-H226 > 100 µM | MDA-MB-435 > 100 µM | CCRF-CEM 49.2 µM | 786-0 > 100 µM | OVCAR-4 > 100 µM | SN12C > 100 µM | TK-10 > 100 µM | HOP-92 > 100 µM | U-251 > 100 µM | NCI-H23 > 100 µM | DU-145 > 100 µM | HL-60 3.6 µM | NCI/ADR-RES > 100 µM | ACHN > 100 µM | UACC-62 > 100 µM | SF-539 > 100 µM

CCOC(=O)C1CCC(=O)N1C(=O)c1ccccc1 (configuration not stated)
inactive: T47D > 100 µM | LOX IMVI 92.3 µM | M14 > 100 µM | NCI-H226 > 100 µM | MDA-MB-435 > 100 µM | CCRF-CEM > 100 µM | 786-0 > 100 µM | HCC 2998 > 100 µM | SN12C > 100 µM | TK-10 > 100 µM | HOP-92 > 100 µM | U-251 > 100 µM | NCI-H23 > 100 µM | DU-145 > 100 µM | HL-60 > 100 µM | NCI/ADR-RES > 100 µM | ACHN > 100 µM | UACC-62 7.83 µM | SF-539 > 100 µM

N#CC(C#N)=CNC(=S)c1ccncc1
inactive: T47D > 100 µM | LOX IMVI > 100 µM | M14 > 100 µM | NCI-H226 > 100 µM | MDA-MB-435 > 100 µM | CCRF-CEM 34.5 µM | 786-0 > 100 µM | HCC 2998 59.8 µM | OVCAR-4 > 100 µM | SN12C 87.5 µM | U-251 > 100 µM | NCI-H23 > 100 µM | DU-145 > 100 µM | HL-60 48.1 µM | NCI/ADR-RES > 100 µM | ACHN 34.8 µM | UACC-62 > 100 µM | SF-539 23.1 µM

Cn1c(=O)c(Br)c(C=O)n(CCO[N+](=O)[O-])c1=O
inactive: T47D 1.87 µM | LOX IMVI 2.14 µM | M14 3.99 µM | NCI-H226 51.3 µM | MDA-MB-435 5.42 µM | CCRF-CEM 1.62 µM | 786-0 5.14 µM | HCC 2998 15.4 µM | SN12C 4.34 µM | TK-10 3.86 µM | HOP-92 2.72 µM | U-251 3.02 µM | NCI-H23 5.7 µM | DU-145 27.2 µM | HL-60 1.77 µM | NCI/ADR-RES 1.74 µM | ACHN 3.71 µM | UACC-62 1.23 µM | SF-539 7.76 µM

O=C1CCC2(c3ccccc3)Nc3ccncc3N12 (configuration not stated)
inactive: T47D > 10 µM | LOX IMVI > 10 µM | M14 > 10 µM | NCI-H226 > 10 µM | MDA-MB-435 > 10 µM | CCRF-CEM > 10 µM | 786-0 > 10 µM | OVCAR-4 > 10 µM | SN12C > 10 µM | TK-10 > 10 µM | HOP-92 > 10 µM | U-251 > 10 µM | NCI-H23 > 10 µM | DU-145 > 10 µM | HL-60 > 10 µM | NCI/ADR-RES > 10 µM | ACHN > 10 µM | UACC-62 > 10 µM | SF-539 > 10 µM

Cc1noc(C)c1/N=N/c1ccc2nonc2c1N
inactive: T47D > 100 µM | LOX IMVI > 100 µM | M14 > 100 µM | MDA-MB-435 > 100 µM | CCRF-CEM > 100 µM | 786-0 42.4 µM | HCC 2998 > 100 µM | OVCAR-4 > 100 µM | SN12C > 100 µM | TK-10 58.7 µM | HOP-92 87.7 µM | NCI-H23 46.5 µM | DU-145 > 100 µM | HL-60 > 100 µM | NCI/ADR-RES > 100 µM | ACHN > 100 µM | UACC-62 > 100 µM | SF-539 23.4 µM

O=C(Nc1ccc(N2C(=O)CSC2c2cccs2)cc1)c1ccc(N2C(=O)CSC2c2cccs2)cc1 (configuration not stated)
inactive: T47D 46.5 µM | LOX IMVI 88.9 µM | M14 > 100 µM | MDA-MB-435 83.4 µM | CCRF-CEM 44.2 µM | 786-0 58.6 µM | HCC 2998 > 100 µM | OVCAR-4 > 100 µM | SN12C > 100 µM | TK-10 > 100 µM | HOP-92 > 100 µM | U-251 86.5 µM | NCI-H23 24.8 µM | DU-145 > 100 µM | NCI/ADR-RES > 100 µM | ACHN > 100 µM | UACC-62 56.5 µM | SF-539 > 100 µM

OCC1OC(n2nc(-c3ccccc3)nc2-c2cnccn2)C(O)C1O (configuration not stated)
inactive: T47D > 100 µM | LOX IMVI > 100 µM | M14 > 100 µM | MDA-MB-435 > 100 µM | CCRF-CEM > 100 µM | 786-0 > 100 µM | HCC 2998 > 100 µM | OVCAR-4 > 100 µM | SN12C > 100 µM | TK-10 > 100 µM | HOP-92 > 100 µM | U-251 > 100 µM | NCI-H23 > 100 µM | DU-145 > 100 µM | HL-60 > 100 µM | NCI/ADR-RES > 100 µM | UACC-62 > 100 µM | SF-539 > 100 µM

CCn1nc(-c2ccccc2)c2c1N(C)c1ccccc1-n1c(-c3ccccc3)nnc1-2
inactive: T47D 4.63 µM | LOX IMVI 16.6 µM | M14 16 µM | NCI-H226 17.2 µM | MDA-MB-435 > 100 µM | CCRF-CEM 18.8 µM | 786-0 16.3 µM | HCC 2998 15.9 µM | SN12C 16.4 µM | TK-10 16 µM | HOP-92 16.3 µM | U-251 15 µM | NCI-H23 14 µM | DU-145 16.1 µM | HL-60 > 10 µM | NCI/ADR-RES 14.9 µM | ACHN 13.5 µM | UACC-62 12.8 µM | SF-539 22.5 µM

COc1ccc(-n2c(C)nc3ccc(NC4OC(CO)C(O)C(O)C4O)cc3c2=O)cc1 (configuration not stated)
inactive: T47D > 100 µM | LOX IMVI > 100 µM | NCI-H226 > 100 µM | MDA-MB-435 > 100 µM | 786-0 > 100 µM | HCC 2998 > 100 µM | OVCAR-4 > 100 µM | SN12C > 100 µM | TK-10 > 100 µM | U-251 > 100 µM | NCI-H23 > 100 µM | DU-145 > 100 µM | HL-60 > 100 µM | NCI/ADR-RES > 100 µM | ACHN > 100 µM | UACC-62 > 100 µM

CC(C)(C)c1ccc(-c2nc3ccc(Cl)cc3c(=O)o2)cc1
inactive: T47D 20.5 µM | LOX IMVI 15.4 µM | M14 17.9 µM | MDA-MB-435 24.1 µM | CCRF-CEM 14.8 µM | 786-0 36.6 µM | HCC 2998 12.8 µM | OVCAR-4 20.5 µM | SN12C 27.1 µM | TK-10 41.3 µM | HOP-92 11.9 µM | U-251 12.6 µM | NCI-H23 11.4 µM | DU-145 25.4 µM | HL-60 19.4 µM | NCI/ADR-RES 22.7 µM | ACHN 14.1 µM | UACC-62 18.8 µM | SF-539 14.7 µM
